In ChEMBL document CHEMBL1150551, “Novel angiotensin converting enzyme inhibitors containing -hydroxy ketomethylene dipeptide isosteres” (Bioorg Med Chem Lett, 1994) one finds IC50 data, which are given here for eight compounds.

Where only a bound is given, the exact number is not on record here.

In the first assay the target is T1, Angiotensin-converting enzyme (Oryctolagus cuniculus, UniProt P12822).
T1 sequence (P12822 whole entry): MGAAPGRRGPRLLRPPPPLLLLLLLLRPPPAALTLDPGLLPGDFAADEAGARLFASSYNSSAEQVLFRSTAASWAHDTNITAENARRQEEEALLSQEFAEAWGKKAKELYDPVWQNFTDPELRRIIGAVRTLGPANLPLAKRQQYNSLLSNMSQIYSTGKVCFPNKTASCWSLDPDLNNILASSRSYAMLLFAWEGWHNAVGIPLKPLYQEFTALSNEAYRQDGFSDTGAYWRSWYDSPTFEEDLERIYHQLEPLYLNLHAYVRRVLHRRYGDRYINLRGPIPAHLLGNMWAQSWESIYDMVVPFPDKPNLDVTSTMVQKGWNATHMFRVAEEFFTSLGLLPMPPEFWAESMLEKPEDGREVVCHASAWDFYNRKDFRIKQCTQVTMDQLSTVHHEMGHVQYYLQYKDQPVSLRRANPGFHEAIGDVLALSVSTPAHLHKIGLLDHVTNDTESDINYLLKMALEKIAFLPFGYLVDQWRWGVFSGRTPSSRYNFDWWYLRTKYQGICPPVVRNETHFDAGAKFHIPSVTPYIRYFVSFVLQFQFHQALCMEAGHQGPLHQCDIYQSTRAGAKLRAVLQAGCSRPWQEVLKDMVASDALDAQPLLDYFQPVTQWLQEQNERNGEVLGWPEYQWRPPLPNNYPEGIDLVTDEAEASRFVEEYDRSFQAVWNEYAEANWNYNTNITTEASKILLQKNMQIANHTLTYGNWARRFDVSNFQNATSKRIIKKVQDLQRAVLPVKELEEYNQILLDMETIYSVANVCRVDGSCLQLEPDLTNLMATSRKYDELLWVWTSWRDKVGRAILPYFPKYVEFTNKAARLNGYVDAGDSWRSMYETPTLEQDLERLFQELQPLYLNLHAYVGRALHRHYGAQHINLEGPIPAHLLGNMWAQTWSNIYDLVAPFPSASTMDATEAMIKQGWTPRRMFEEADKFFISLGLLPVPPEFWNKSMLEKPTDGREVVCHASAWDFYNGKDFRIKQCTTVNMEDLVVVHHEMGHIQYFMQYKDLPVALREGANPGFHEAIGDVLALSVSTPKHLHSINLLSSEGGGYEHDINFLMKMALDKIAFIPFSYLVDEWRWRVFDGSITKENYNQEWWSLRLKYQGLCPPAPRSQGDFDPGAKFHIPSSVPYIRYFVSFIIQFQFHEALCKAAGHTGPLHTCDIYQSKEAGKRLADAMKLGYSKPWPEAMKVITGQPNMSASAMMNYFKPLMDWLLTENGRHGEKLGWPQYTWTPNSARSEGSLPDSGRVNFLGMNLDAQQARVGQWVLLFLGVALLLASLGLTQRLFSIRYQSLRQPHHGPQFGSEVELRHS
Description: Inhibitory concentration against angiotensin converting enzyme (ACE).
In turn, `O=C(N[C@@H](Cc1ccccc1)C(=O)C[C@@H](O)C(=O)N1c2ccccc2C[C@H]1C(=O)O)c1ccccc1` gave an IC50 of 0.09 µM.
On the same count and under the same terms, for `O=C(N[C@@H](Cc1ccccc1)C(=O)C[C@H](O)C(=O)N1CCC[C@H]1C(=O)O)c1ccccc1` the value was 100 µM; for `O=C(N[C@@H](Cc1ccccc1)C(=O)C[C@@H](O)C(=O)N1CCC[C@H]1C(=O)O)c1ccccc1`, 5 µM.
The same measure, in the same setting: for `O=C(N[C@@H](Cc1ccccc1)C1=NO[C@@H](C(=O)N2c3ccccc3C[C@H]2C(=O)O)C1)c1ccccc1` the value was over 1000 µM; for `O=C(N[C@@H](Cc1ccccc1)C(=O)C[C@H](O)C(=O)N1c2ccccc2C[C@H]1C(=O)O)c1ccccc1`, 5 µM.

In the next assay the target is T1, Angiotensin-converting enzyme. The assay is described as follows: Inhibitory concentration against angiotensin converting enzyme (ACE); No activity in experimental concentration range.
For the compound `O=C(N[C@@H](Cc1ccccc1)C1=NO[C@H](C(=O)N2CCC[C@H]2C(=O)O)C1)c1ccccc1`, the IC50 result was “Not Active”.
The same measure, in the same setting: in the case of `O=C(N[C@@H](Cc1ccccc1)C1=NO[C@@H](C(=O)N2CCC[C@H]2C(=O)O)C1)c1ccccc1` it was “Not Active”; in that of `O=C(N[C@@H](Cc1ccccc1)C1=NO[C@H](C(=O)N2c3ccccc3C[C@H]2C(=O)O)C1)c1ccccc1`, “Not Active”.
